Experimental findings from EP0463212A1, “Imidazo[2,1-b]thiazole compound anti-ulcer agent containing the same” (NIKKEN CHEMICALS CO., LTD., priority 1990, dated 1992) are described below.

The subject of one series is gastric juice secretion. In words: Gastric juice secretion inhibition activity (pyloric ligature). The format is in vivo, Wistar strain male rats. The settings on record: 100 mg/kg oral; for Gastric juice (pH) / Free HCℓ / Pepsin output / Total acidity: four hours after; for Free HCℓ: Töpfer reagent; for Pepsin output: casein as substrate; for Total acidity: phenolphthalein reagent; for Gastric juice: gastric juice collected four hours after. As for the experimental part:
Gastric juice secretion inhibition activity
A suspension of each test compound in 5% gum arabic aqueous solution was orally given to Wistar strain male rats (at the age of 7 to 8 weeks, weighing 192 to 241 g; 7-9 rats in the group administered with the test compound; 15 rats in the control group) fasted for 24 hours at a dose of 100 mg of the test compound/5 ml/kg. Thirty minutes after administration (the compounds of Examples 3 and 4) or 60 minutes after administration (the compounds of Examples 1, 2, 5, 6 and 7), pyloric ligature was made under ethereal anesthesia. Four hours after, the stomach was excised under ethereal anesthesia to collect gastric juice. The collected gastric juice was centrifuged (2500 rpm) at 4°C for 10 minutes. After the supernatant was collected, an amount of the gastric juice and its pH were measured using a pH meter. Furthermore, an amount of free hydrochloric acid and the total acidity were measured with Töpfer reagent and phenolphthalein reagent, respectively. Using a part of the gastric juice, pepsin output in the gastric juice was measured using casein as substrate in a manner similar to the method of Anson et al.
(§1) In the control group, 5% gum arabic aqueous solution was orally administered at a dose of 5 ml/kg.

The subject of another series is aspirin-induced ulcer. Briefly: Antiulcer activity against aspirin-induced ulcer model. It counts as in vivo, Wistar strain male rats. The settings on record: 100 mg/kg oral, 30 min before aspirin 200 mg/kg oral; for Ulcer index: stomach excised 7 hours after aspirin, rats fasted 24 hours; for Inhibition rate: versus control group. As for the experimental part: Antiulcer activity against aspirin-induced ulcer model
A suspension of each test compound in 5% gum arabic aqueous solution was orally given to Wistar strain male rats (at the age of 7 to 8 weeks, weighing 180 to 227 g; 7-8 rats in the group administered with the test compound; 14-16 rats in the control group) fasted for 24 hours at a dose of 100 mg of the test compound/5 ml/kg. Thirty minutes after administration, aspirin was further orally administered at a dose of 200 mg/kg. Seven hours after administration of aspirin, stomach was excised under ethereal anesthesia and spotted and linear erosion and a long diameter of ulcer were microscopically measured to determine an ulcer index and an inhibition rate.
as §1

Series [1] deals with water-immersion stress ulcer. Briefly: Antiulcer activity against water-immersion stress ulcer model. It counts as in vivo, Wistar strain male rats. The settings on record: 100 mg/kg oral; for Ulcer index: 30 min before water immersion at 22 ± 1°C, stress load for 6 hours; for Inhibition rate: 30 min before water immersion stress for 6 hours, versus control group. How it is done: Antiulcer activity against water-immersion stress ulcer model
A suspension of each test compound in 5% gum arabic aqueous solution was orally given to Wistar strain male rats (at the age of 7 to 8 weeks, weighing 191 to 238 g; 7-8 rats in the group administered with the test compound; 14-16 rats in the control group) fasted for 24 hours at a dose of 100 mg of the test compound/5 ml/kg. Thirty minutes after administration, the animal was immersed up to the xiphisternum in water bath at 22 ± 1°C using a stress cage made by Tokyo University, Faculty of Pharmacology to apply a stress load for 6 hours. After applying the stress load, the rats had the cervical vertebra dislocated to death. Then, the stomach was excised and, spotted and linear erosion and a long diameter of ulcer were microscopically measured to determine an ulcer index and an inhibition rate.
as §1

For series [2], the system named is SLC-ICR or SLC-ddy strain male mice. Briefly: Acute toxicity. Conditions: oral, once, observed for 7 days. The format is in vivo. As for the experimental part: A suspension of each test compound in 5% gum arabic aqueous solution was orally given to SLC-ICR or SLC-ddy strain male mice (at the age of 6 to 7 weeks, weighing 26.6 to 33.6 g; 3-8 mice in one group) forcedly once at a dose of 500 mg and 1,000mg of the test compound/5mℓ/kg. For 7 days after the administration, the mice were observed whether they were dead or alive.

Another series deals with ethanol-induced ulcer. In words: Antiulcer activity against ethanol-induced ulcer model. The format is in vivo, Wistar strain male rats. The settings on record: 100 mg/kg oral; for Ulcer index: 30 min before absolute ethanol 5 ml/kg oral, 1 hour after ethanol; for Inhibition rate: versus control group. How it is done:
Antiulcer activity against ethanol-induced ulcer model
A suspension of each test compound in 5% gum arabic aqueous solution was orally given to Wistar strain male rats (at the age of 7 to 8 weeks, weighing 180 to 250 g; 5-9 rats in the group administered with the test compound; 4-9 rats in the control group) fasted for 24 hours at a dose of 100 mg of the test compound/5 ml/kg. Thirty minutes after administration, absolute ethanol was further orally administered at a dose of 5 mℓ/kg. One hour after administration of absolute ethanol, the stomach was excised under ethereal anesthesia and the area of an ulcerated portion (mm²) (using microscope) or the proportion (%) thereof to all area of gastric wall (by computer image analysis) were measured to determine an ulcer index and an inhibition rate.
as §1

[3] abbreviates: pyloric ligature 30 minutes after administration.
The mark [4] stands for this setting: pyloric ligature 60 minutes after administration.
Setting [5] is: proportion of ulcerated area to all area of gastric wall (computer image analysis).

On to `Cc1nc2sccn2c1C(O)c1ccccc1` (centres unmarked) [Ex. 3, 5-(hydroxy-phenyl)-methyl-6-methyl-imidazo[2,1-b]thiazole], for which, in the series with gastric juice secretion (setting [3]), the “Gastric juice (pH)” value came out at 1.66 ± 0.09 pH, the “Free HCℓ” value is 35.1 ± 5.0 mEq/l, the Pepsin output is 157.7 ± 17.6 units/hr and the Total acidity is given as 66.6 ± 4.7 mEq/l. This compound also registered a Gastric juice in the series on gastric juice secretion (setting [3]) of 6.4 ± 0.7 mL. In addition, in the series with aspirin-induced ulcer, the Ulcer index was 31.7 ± 5.9 mm and the Inhibition rate came out at 44.8%. In addition, in series [1], the Ulcer index was found to be 3.6 ± 2.0 mm and the Inhibition rate is listed as 83.3%. Also, in series [2] (500 mg/kg), the “Mortality rate (No. of death/No. of treated)” value is recorded as 2/6. Also, in series [2] (1000 mg/kg), the “Mortality rate (No. of death/No. of treated)” value is 3/3.

In the case of `Cc1nc2sccn2c1C(C)O` (centres unmarked) [Ex. 5, 5-(1-hydroxyethyl)-6-methylimidazo[2,1-b]-thiazole], in the series with gastric juice secretion (setting [4]), the “Gastric juice (pH)” value was determined as 1.48 ± 0.11 pH, the “Free HCℓ” value is 68.4 ± 19.6 mcEq/100g, the Pepsin output is 16.6 ± 2.2 mg of tyrosine/100g and the Total acidity amounted to 117.0 ± 20.8 mcEq/100g. This compound also gave a Gastric juice in the series with gastric juice secretion (setting [4]) of 1.41 ± 0.15 mℓ/100g. Further, in the series on aspirin-induced ulcer, the Ulcer index came out at 29.6 ± 6.8 mm and the Inhibition rate stood at 58.3%. In series [1], the Ulcer index is given as 19.5 ± 5.8 mm and the Inhibition rate came out at 17.7%. The “Mortality rate (No. of death/No. of treated)” value in series [2] (500 mg/kg) is on record as 2/5. The “Mortality rate (No. of death/No. of treated)” value in series [2] (1000 mg/kg) is given as 3/5.

`CCCCc1sc2nc(C)c(C(O)CCC)n2c1C` (centres unmarked) [Ex. 6, 2-butyl-3,6-dimethyl-5-(1-hydroxybutyl)-imidazo[2,1-b]thiazole]: in the series with gastric juice secretion (setting [4]), the “Gastric juice (pH)” value is on record as 1.36 ± 0.17 pH, the “Free HCℓ” value is on record as 132.7 ± 33.8 mcEq/100g, the Pepsin output was 21.6 ± 2.7 mg of tyrosine/100g and the Total acidity is 172.6 ± 36.5 mcEq/100g. In the series with gastric juice secretion (setting [4]), this compound gave a Gastric juice of 2.00 ± 0.27 mℓ/100g. Besides, in the series with aspirin-induced ulcer, the Ulcer index is on record as 37.5 ± 7.4 mm and the Inhibition rate worked out at 47.1%. Moreover, in series [1], the Ulcer index was determined as 18.8 ± 4.7 mm and the Inhibition rate is 20.7%. Moreover, in series [2] (500 mg/kg), the “Mortality rate (No. of death/No. of treated)” value is recorded as 0/5. The “Mortality rate (No. of death/No. of treated)” value in series [2] (1000 mg/kg) is listed as 0/5.

In the series on ethanol-induced ulcer (setting [5]), `Cc1ccc(C(O)c2c(C)nc3sccn23)cc1` (centres unmarked) [Ex. 9, 5-{hydroxy-(4-methylphenyl)}methyl-6-methylimidazo[2,1-b]thiazole] returned a Ulcer index of 6.8 ± 1.5 %. The compound also displayed an Inhibition rate in the series with ethanol-induced ulcer (from ulcer index in %) of 59.8%.

Compound `Cc1nc2scc(C)n2c1C(O)c1ccc(F)cc1` (centres unmarked) [Ex. 12, 3,6-dimethyl-5-{hydroxy-(4-fluorophenyl)}-methylimidazo[2,1-b]-thiazole] showed a Ulcer index in the series with ethanol-induced ulcer (setting [5]) of 6.3 ± 1.3 %. The Inhibition rate with ethanol-induced ulcer (from ulcer index in %) is recorded as 62.7%.

As to `COc1ccc(C(O)c2c(C)nc3sccn23)cc1OC` (centres unmarked) [Ex. 10, 5-{hydroxy-(3,4-dimethoxyphenyl)}-methyl-6-methyl-imidazo[2,1-b]thiazole], in the series with ethanol-induced ulcer (setting [5]), the Ulcer index came to 2.7 ± 0.9 %. Besides, in the series with ethanol-induced ulcer (from ulcer index in %), the Inhibition rate stood at 84.0%.

On to `Cc1nc2sccn2c1C(O)c1ccc(F)cc1` (centres unmarked) [Ex. 11, 5-{hydroxy-(4-fluorophenyl)}methyl-6-methylimidazo[2,1-b]thiazole], for which the Ulcer index with ethanol-induced ulcer (setting [5]) is 1.2 ± 0.5 %. For the same compound, the Inhibition rate with ethanol-induced ulcer (from ulcer index in %) was determined as 92.9%.

For `CCCCc1sc2nc(C)c(CO)n2c1C` [Ex. 2, 2-butyl-3,6-dimethyl-5-hydroxymethylimidazo[2,1-b]thiazole], in the series with gastric juice secretion (setting [4]), the “Gastric juice (pH)” value worked out at 1.29 ± 0.08 pH, the “Free HCℓ” value amounted to 111.0 ± 36.3 mcEq/100g, the Pepsin output is reported as 15.9 ± 2.1 mg of tyrosine/100g and the Total acidity was determined as 147.2 ± 37.4 mcEq/100g. Moreover, the Gastric juice in the series on gastric juice secretion (setting [4]) worked out at 1.63 ± 0.28 mℓ/100g. In addition, in the series on aspirin-induced ulcer, the Ulcer index came out at 52.7 ± 7.8 mm and the Inhibition rate was determined as 25.7%. Further, in series [1], the Ulcer index amounted to 13.3 ± 3.9 mm and the Inhibition rate was 43.9%. Also, the “Mortality rate (No. of death/No. of treated)” value in series [2] (500 mg/kg) is listed as 0/5. Also, in series [2] (1000 mg/kg), the “Mortality rate (No. of death/No. of treated)” value was 0/5.

As for `Cc1nc2scc(C)n2c1CO` [Ex. 1, 3,6-dimethyl-5-hydroxymethylimidazo[2,1-b]thiazole], in the series with gastric juice secretion (setting [4]), the “Gastric juice (pH)” value came to 2.02 ± 0.31 pH, the “Free HCℓ” value is on record as 33.9 ± 14.9 mcEq/100g, the Pepsin output is given as 12.0 ± 1.6 mg of tyrosine/100g and the Total acidity is reported as 70.6 ± 17.4 mcEq/100g. The Gastric juice in the series with gastric juice secretion (setting [4]) was 1.12 ± 0.18 mℓ/100g. Moreover, in the series on aspirin-induced ulcer, the Ulcer index is recorded as 38.6 ± 7.9 mm and the Inhibition rate is given as 45.6%. In series [1], this compound came in with a Ulcer index of 2.6 ± 0.9 mm and an Inhibition rate of 89.0%. For the same compound, the “Mortality rate (No. of death/No. of treated)” value in series [2] (500 mg/kg) is listed as 0/5. Moreover, the “Mortality rate (No. of death/No. of treated)” value in series [2] (1000 mg/kg) is 1/5.

Take `Cc1nc2scc(C)n2c1C(O)c1ccccc1` (centres unmarked) [Ex. 8, 3,6-dimethyl-5-(hydroxy-phenyl)-methylimidazo[2,1-b]-thiazole]: the results for the Ulcer index (with ethanol-induced ulcer (area of ulcerated portion (microscope)); in series [1]) were 15.3 ± 8.5^** mm^2 and 2.8 ± 0.5 mm, respectively. Also, the Inhibition rate amounted to 82.2% with ethanol-induced ulcer (from ulcer index in mm^2) and 82.0% in series [1].

Turning to `CCCCc1sc2nc(C)c(C(O)c3ccccc3)n2c1C` (centres unmarked) [Ex. 7, 2-butyl-3,6-dimethyl-5-(hydroxy-phenyl)-methylimidazo[2,1-b]-thiazole], in the series with gastric juice secretion (setting [4]), the “Gastric juice (pH)” value is recorded as 1.13 ± 0.03 pH, the “Free HCℓ” value is reported as 220.6 ± 32.5 mcEq/100g, the Pepsin output is listed as 27.2 ± 2.3 mg of tyrosine/100g and the Total acidity stood at 260.5 ± 32.9 mcEq/100g. The compound further returned a Gastric juice with gastric juice secretion (setting [4]) of 2.91 ± 0.29 mℓ/100g. In the series on aspirin-induced ulcer, this compound gave a Ulcer index of 65.1 ± 8.5 mm and an Inhibition rate of 8.2%. Further, the Ulcer index in series [1] is 25.5 ± 5.5 mm. Moreover, the “Mortality rate (No. of death/No. of treated)” value in series [2] (500 mg/kg) was 0/5. The “Mortality rate (No. of death/No. of treated)” value in series [2] (1000 mg/kg) is 0/5.
